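How tested: cells in 96-well plates exposed to compound for 48 hours at five concentrations. At the GI50, growth is halved.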 Active and inactive are the calls of the source. Rule as the data show it: active = GI50 up to about 1.1 µM and inactive = higher.
Tests used:
Assay in all cases: NCI anticancer screen, dose series, 48 h
[1] = system: Malme-3M
[2] = system: SK-MEL-2
[3] = system: SNB-19
[4] = system: K562
[5] = system: NCI-H522
[6] = system: SNB-78
[7] = system: HCT-116
[8] = system: OVCAR-5
[9] = system: A549
[10] = system: HCT-15
[11] = system: SK-MEL-28
[12] = system: U-251
[13] = system: HCC 2998
[14] = system: KM-20L2
[15] = system: UACC-257
[16] = system: DMS-114
[17] = system: HOP-92
[18] = system: M14
[19] = system: ACHN

| SMILES | GI50 [1] | GI50 [2] | GI50 [3] | GI50 [4] | GI50 [5] | GI50 [6] | GI50 [7] | GI50 [8] | GI50 [9] | GI50 [10] [µM] | GI50 [11] | GI50 [12] | GI50 [13] | GI50 [14] | GI50 [15] | GI50 [16] | GI50 [17] | GI50 [18] | GI50 [19] |
| --- | --- | --- | --- | --- | --- | --- | --- | --- | --- | --- | --- | --- | --- | --- | --- | --- | --- | --- | --- |
| CCOC(=O)NC(=O)c1cn(CCN(CCO)C(=O)NCCCCCCNC(=O)N(CCO)CCn2cc(C(=O)NC(=O)OCC)c(=O)[nH]c2=O)c(=O)[nH]c1=O | > 100 µM (inactive) | > 100 µM (inactive) | > 100 µM (inactive) | > 100 µM (inactive) | > 100 µM (inactive) | > 100 µM (inactive) | > 100 µM (inactive) | > 100 µM (inactive) | > 100 µM (inactive) | > 100 | > 100 µM (inactive) | > 100 µM (inactive) | > 100 µM (inactive) | > 100 µM (inactive) | > 100 µM (inactive) | > 100 µM (inactive) | > 100 µM (inactive) |  |  |
| C/C(CC(=O)Nc1cccc([N+](=O)[O-])c1)=N\NC(=O)CC#N | > 100 µM (inactive) | > 100 µM (inactive) |  | > 100 µM (inactive) | 99.1 µM (inactive) | > 100 µM (inactive) | > 100 µM (inactive) | > 100 µM (inactive) | > 100 µM (inactive) |  | > 100 µM (inactive) | > 100 µM (inactive) | > 100 µM (inactive) | > 100 µM (inactive) | > 100 µM (inactive) | > 100 µM (inactive) | > 100 µM (inactive) | > 100 µM (inactive) |  |
| O=C1CCCCCCCCCCC1CN1CCCCC1 (centres undefined) | > 100 µM (inactive) | > 100 µM (inactive) | > 100 µM (inactive) | 94.4 µM (inactive) | > 100 µM (inactive) | > 100 µM (inactive) | 58.6 µM (inactive) | 89.7 µM (inactive) | > 100 µM (inactive) | 59.8 | 41.6 µM (inactive) | 75.3 µM (inactive) | > 100 µM (inactive) | 31.3 µM (inactive) | 70.6 µM (inactive) | 60.5 µM (inactive) |  | > 10 µM (inactive) | > 100 µM (inactive) |
| CC(C)NC(=O)OCc1c2c(n(C)c1COC(=O)NC(C)C)-c1ccccc1CC2 | 5.51 µM (inactive) | 14.5 µM (inactive) | 14.6 µM (inactive) | 4.26 µM (inactive) | 5.32 µM (inactive) | 11.4 µM (inactive) | 10 µM (inactive) | 17.2 µM (inactive) | 23.7 µM (inactive) | 14 | 13 µM (inactive) | 9.18 µM (inactive) | 13.1 µM (inactive) | 14 µM (inactive) | 15.2 µM (inactive) | 5.43 µM (inactive) | 6.73 µM (inactive) |  |  |
| CC(=O)Oc1cc(Cl)c(OC(C)=O)c2c(OC(C)=O)c(C)c(O[Si](C)(C)C(C)(C)C)cc12 |  | 17.9 µM (inactive) | 12.8 µM (inactive) | 3.22 µM (inactive) | 5.07 µM (inactive) | 3.12 µM (inactive) | 3.35 µM (inactive) |  | 5.3 µM (inactive) | 4.76 | 3.05 µM (inactive) | 2.32 µM (inactive) | 4.46 µM (inactive) | 17.4 µM (inactive) | 3.23 µM (inactive) | 3 µM (inactive) | 7.52 µM (inactive) | 5.7 µM (inactive) |  |
| C/C(=N/Nc1ccc([N+](=O)[O-])cc1[N+](=O)[O-])C(CC(C(=O)NCc1ccccc1)/C(C)=N\Nc1ccc([N+](=O)[O-])cc1[N+](=O)[O-])C(=O)NCc1ccccc1 (centres undefined) | 12.2 µM (inactive) | 10.1 µM (inactive) | 15.2 µM (inactive) |  | < 0.01 µM (active) | 9.16 µM (inactive) | 4.88 µM (inactive) | 19.4 µM (inactive) | 4.4 µM (inactive) | 10.3 | 7.8 µM (inactive) | 3.25 µM (inactive) | 13.2 µM (inactive) | 14.2 µM (inactive) | 5.21 µM (inactive) | 9.91 µM (inactive) | 2.88 µM (inactive) | 8.04 µM (inactive) | 5.46 µM (inactive) |
| Clc1ccc(Cl)c2[s+]snc12 | > 49.5 µM (inactive) |  | > 93.5 µM (inactive) | > 45.8 µM (inactive) | 18.1 µM (inactive) | > 100 µM (inactive) | 21.6 µM (inactive) | > 100 µM (inactive) | > 100 µM (inactive) | 29.4 | > 100 µM (inactive) | 38.6 µM (inactive) | > 100 µM (inactive) | > 100 µM (inactive) | > 93.3 µM (inactive) | 24.9 µM (inactive) | > 60.7 µM (inactive) | 55.6 µM (inactive) | > 79.1 µM (inactive) |
| N#CC1=C(c2ccccc2)NNC(c2ccc(Cl)cc2)CC1=O (centres undefined) | 32.4 µM (inactive) | 29.4 µM (inactive) | 53.2 µM (inactive) |  | 20.4 µM (inactive) | > 100 µM (inactive) | 49.3 µM (inactive) | 37.1 µM (inactive) | 39.9 µM (inactive) | 26.2 | 91.4 µM (inactive) | 57.8 µM (inactive) | 56.6 µM (inactive) | 24 µM (inactive) | 45 µM (inactive) | 82.2 µM (inactive) | 43.3 µM (inactive) | 25.6 µM (inactive) | 49.2 µM (inactive) |
| C/C(=N\O)C(CN(C)C)C(c1ccccc1)c1c(O)c2ccccc2oc1=O (centres undefined) | > 100 µM (inactive) | > 100 µM (inactive) | > 100 µM (inactive) | > 100 µM (inactive) | > 100 µM (inactive) | > 100 µM (inactive) | > 100 µM (inactive) | > 100 µM (inactive) | > 100 µM (inactive) | > 100 | > 100 µM (inactive) | > 100 µM (inactive) | > 100 µM (inactive) | > 100 µM (inactive) | > 100 µM (inactive) | > 100 µM (inactive) | 34.9 µM (inactive) | > 100 µM (inactive) |  |
| Nc1cc[nH]c(=O)n1 | > 100 µM (inactive) | > 100 µM (inactive) |  | > 100 µM (inactive) | > 100 µM (inactive) | > 100 µM (inactive) | > 100 µM (inactive) | > 100 µM (inactive) | > 100 µM (inactive) | > 100 | > 100 µM (inactive) | > 100 µM (inactive) |  | > 100 µM (inactive) | > 100 µM (inactive) | > 100 µM (inactive) | > 100 µM (inactive) | > 100 µM (inactive) | > 100 µM (inactive) |
| O=S1(=O)C[C@@H](O)[C@H](O)CS1 | > 100 µM (inactive) |  | > 100 µM (inactive) | > 100 µM (inactive) | > 100 µM (inactive) | > 100 µM (inactive) | > 100 µM (inactive) | > 100 µM (inactive) | > 100 µM (inactive) |  | > 100 µM (inactive) | > 100 µM (inactive) | > 100 µM (inactive) | > 100 µM (inactive) | > 100 µM (inactive) | > 100 µM (inactive) | > 100 µM (inactive) | > 100 µM (inactive) | > 100 µM (inactive) |
| c1ccc2c(c1)[nH]c1c2ncc2[nH]c3ccccc3c21 | 19.4 µM (inactive) | 7.29 µM (inactive) | 2.94 µM (inactive) | 2.55 µM (inactive) | 4.74 µM (inactive) | 4.95 µM (inactive) | 1.77 µM (inactive) | 10.9 µM (inactive) | 4.65 µM (inactive) | 2.25 | 11.7 µM (inactive) | 2.43 µM (inactive) | 2.64 µM (inactive) | 3.71 µM (inactive) | > 10 µM (inactive) | 2.44 µM (inactive) | 2.57 µM (inactive) | 2.75 µM (inactive) | 4.24 µM (inactive) |

Source: ChEMBL document CHEMBL1201862, “PubChem BioAssay data set” (2004)
